Measurements: patent US9815796B2 (Merck Sharp & Dohme Corp., priority 2013, dated 2017)
Like-named read-outs stand apart in the source and are kept apart here.

Key:
human PDE2A1 = human PDE2A1 (Homo sapiens (Human), UniProt O00408); test: IMAP FP PDE selectivity panel, human PDE2A1; type: biochemical
Outline: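 GST-tagged human PDE2A1 expressed in insect cells, run at room temperature for 60 min with 50 nM FAM-cAMP containing 1000 nM cGMP, pH 7.2 Tris/MgCl2 buffer. IMAP fluorescence polarization read after binding step.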

Rhesus PDE2A3 = Rhesus PDE2A3 (Macaca mulatta, UniProt B3VTJ2); test: PDE2 fluorescence polarization (IMAP FP) inhibition assay, rhesus enzyme; type: biochemical, rhesus macaque
Outline: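 Rhesus PDE2A3 came from lysate of transiently transfected AD293 cells, diluted to give 20% substrate conversion. Substrate was 50 nM FAM-cAMP with 1 uM cGMP activator in Tris pH 7.2/MgCl2 buffer, run 60 min at room temperature over 10-point 3-fold dilutions in 1% DMSO. Read-out was IMAP fluorescence polarization (mP) after ≥1 h binding.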

[1] = Human PDE2, Lab A, read-out: Human PDE2 Ki (nM) - Lab A
[2] = Rhesus PDE2, Lab A, read-out: Rhesus PDE2 Ki (nM) - Lab A
[3] = Human PDE2, Lab B, read-out: Human PDE2 Ki (nM) - Lab B
[4] = Rhesus PDE2, Lab B, read-out: Rhesus PDE2 Ki (nM) - Lab B

Sequence of human PDE2A1 (O00408 other isoform, or with tags, fused parts or gaps): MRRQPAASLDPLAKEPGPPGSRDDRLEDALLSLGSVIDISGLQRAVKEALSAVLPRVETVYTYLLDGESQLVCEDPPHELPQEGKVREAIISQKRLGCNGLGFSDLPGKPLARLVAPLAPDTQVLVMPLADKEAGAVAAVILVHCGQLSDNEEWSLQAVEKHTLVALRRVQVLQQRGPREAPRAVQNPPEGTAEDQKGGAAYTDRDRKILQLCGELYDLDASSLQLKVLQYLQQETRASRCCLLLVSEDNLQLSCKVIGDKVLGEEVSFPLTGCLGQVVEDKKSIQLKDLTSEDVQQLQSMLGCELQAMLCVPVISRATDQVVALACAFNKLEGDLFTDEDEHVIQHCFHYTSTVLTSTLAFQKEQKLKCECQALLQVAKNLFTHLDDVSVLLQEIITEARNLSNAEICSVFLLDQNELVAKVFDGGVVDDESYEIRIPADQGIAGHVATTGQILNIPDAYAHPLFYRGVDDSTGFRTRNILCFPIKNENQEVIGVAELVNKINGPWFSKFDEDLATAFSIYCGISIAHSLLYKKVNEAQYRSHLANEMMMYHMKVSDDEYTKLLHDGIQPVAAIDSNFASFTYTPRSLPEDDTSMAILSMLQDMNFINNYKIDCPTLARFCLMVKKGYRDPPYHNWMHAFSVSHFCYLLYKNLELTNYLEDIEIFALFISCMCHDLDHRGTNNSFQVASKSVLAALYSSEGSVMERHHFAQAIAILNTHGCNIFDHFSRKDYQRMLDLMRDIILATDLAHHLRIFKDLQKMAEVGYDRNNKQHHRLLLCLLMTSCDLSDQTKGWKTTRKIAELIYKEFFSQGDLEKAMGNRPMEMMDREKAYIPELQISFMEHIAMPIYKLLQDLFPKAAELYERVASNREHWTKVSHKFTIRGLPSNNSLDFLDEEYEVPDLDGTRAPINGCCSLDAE
Sequence of Rhesus PDE2A3 (B3VTJ2 1-941): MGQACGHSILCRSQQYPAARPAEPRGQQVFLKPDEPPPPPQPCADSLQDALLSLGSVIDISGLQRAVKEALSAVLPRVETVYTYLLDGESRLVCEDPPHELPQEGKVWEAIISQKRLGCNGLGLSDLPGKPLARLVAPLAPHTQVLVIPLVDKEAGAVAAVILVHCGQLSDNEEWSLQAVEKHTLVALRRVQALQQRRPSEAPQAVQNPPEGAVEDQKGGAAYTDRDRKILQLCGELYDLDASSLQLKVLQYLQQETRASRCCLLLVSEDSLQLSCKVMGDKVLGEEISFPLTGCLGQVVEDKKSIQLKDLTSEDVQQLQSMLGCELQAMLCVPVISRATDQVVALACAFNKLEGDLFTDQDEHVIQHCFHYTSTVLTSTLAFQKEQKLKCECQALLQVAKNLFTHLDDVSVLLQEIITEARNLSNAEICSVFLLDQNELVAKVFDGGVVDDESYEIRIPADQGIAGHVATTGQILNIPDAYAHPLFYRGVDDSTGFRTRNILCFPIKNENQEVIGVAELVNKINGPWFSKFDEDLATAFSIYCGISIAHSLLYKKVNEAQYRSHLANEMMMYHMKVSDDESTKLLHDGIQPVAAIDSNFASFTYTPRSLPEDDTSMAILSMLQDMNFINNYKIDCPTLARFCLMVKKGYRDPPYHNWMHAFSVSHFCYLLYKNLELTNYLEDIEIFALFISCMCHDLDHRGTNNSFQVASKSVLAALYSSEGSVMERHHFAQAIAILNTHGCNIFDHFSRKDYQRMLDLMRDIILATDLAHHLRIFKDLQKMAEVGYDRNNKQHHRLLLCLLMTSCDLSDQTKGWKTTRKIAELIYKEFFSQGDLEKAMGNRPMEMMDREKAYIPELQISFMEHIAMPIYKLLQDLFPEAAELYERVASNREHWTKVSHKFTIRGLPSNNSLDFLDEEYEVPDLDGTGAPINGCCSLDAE

| Ki (human PDE2A1; [1]) | Ki (Rhesus PDE2A3; [2]) | Ki (human PDE2A1; [3]) | Ki (Rhesus PDE2A3; [4]) | SMILES |
| --- | --- | --- | --- | --- |
| 7.8 nM | 11 nM | – | – | Cc1nc(C(=O)N[C@@H](c2ccc(SC(F)(F)F)c(F)c2)C2CC2)cc(=O)[nH]1 [Example 55, N-[(R)-cyclopropyl{3-fluoro-4-[(trifluoromethyl)sulfanyl]phenyl}methyl]-2-methyl-6-oxo-1,6-dihydropyrimidine-4-carboxamide] |
| – | – | 3.9 nM | 5.8 nM | Cc1nc(C(=O)N[C@@H](c2ccc(OC(F)(F)F)cc2)C(C)(C)C)cc(=O)[nH]1 [Example 57, (R)-N-(2,2-dimethyl-1-(4-(trifluoromethoxy)phenyl)propyl)-2-methyl-6-oxo-1,6-dihydropyrimidine-4-carboxamide] |
| – | – | 1.7 nM | 2.5 nM | Cc1nc(C(=O)N[C@@H](c2ccc(SC(F)(F)F)cc2)C(C)(C)C)cc(=O)[nH]1 [Example 58, (R)-N-(2,2-dimethyl-1-(4-((trifluoromethyl)thio)phenyl)propyl)-2-methyl-6-oxo-1,6-dihydropyrimidine-4-carboxamide] |
| – | – | 4.5 nM | 6.4 nM | Cc1nc(C(=O)N[C@@H](c2ccc(C(F)(F)F)c(F)c2)C(C)(C)C)cc(=O)[nH]1 [Example 59] |
| – | – | 2.8 nM | 4.8 nM | Cc1nc(C(=O)N[C@@H](c2ccc(OC(F)(F)F)c(F)c2)C(C)(C)C)cc(=O)[nH]1 [Example 60, (R)-N-(1-(3-fluoro-4-(trifluoromethoxy)phenyl)-2,2-dimethylpropyl)-2-methyl-6-oxo-1,6-dihydropyrimidine-4-carboxamide] |
| – | – | 8.2 nM | 10 nM | Cc1nc(C(=O)N[C@@H](c2ccc(CC(F)(F)F)cc2)C(C)(C)C)cc(=O)[nH]1 [Example 61, (R)-N-(2,2-dimethyl-1-(4-(2,2,2-trifluoroethyl)phenyl)propyl)-2-methyl-6-oxo-1,6-dihydropyrimidine-4-carboxamide] |
| – | – | 8.3 nM | 9.8 nM | Cc1nc(C(=O)N[C@@H](c2ccc(OC(F)F)cc2)C(C)(C)C)cc(=O)[nH]1 [Example 62, (R)-N-(1-(4-(difluoromethoxy)phenyl)-2,2-dimethylpropyl)-2-methyl-6-oxo-1,6-dihydropyrimidine-4-carboxamide] |
| – | – | 2 nM | 1.9 nM | Cc1nc(C(=O)N[C@@H](c2ccc(C3CC3)cc2)C(C)(C)C)cc(=O)[nH]1 [Example 63, (R)-N-(1-(4-cyclopropylphenyl)-2,2-dimethylpropyl)-2-methyl-6-oxo-1,6-dihydropyrimidine-4-carboxamide] |
| 18 nM | 38 nM | – | – | Cc1nc(C(=O)N[C@@H](c2ccc(C(F)(F)F)cc2)[C@@H](C)O)cc(=O)[nH]1 [Example 65, N-((1S,2R)-2-hydroxy-1-(4-(trifluoromethyl)phenyl)propyl)-2-methyl-6-oxo-1,6-dihydropyrimidine-4-carboxamide] |
| 5.8 nM | 11 nM | – | – | Cc1nc(C(=O)N[C@H](C)c2ccc(SC(F)(F)F)cc2)cc(=O)[nH]1 [Example 66, 2-methyl-6-oxo-N-[(1R)-1-{4-[(trifluoromethyl)sulfanyl]phenyl}ethyl]-1,6-dihydropyrimidine-4-carboxamide] |
| ~9.6 nM | 16 nM | 12 nM | 19 nM | Cc1nc(C(=O)NC2(c3ccc(OC(F)(F)F)c(F)c3)CC2)cc(=O)[nH]1 [Example 67, N-{1-[3-fluoro-4-(trifluoromethoxy)phenyl]cyclopropyl}-2-methyl-6-oxo-1,6-dihydropyrimidine-4-carboxamide] |
| 17 nM | 26 nM | – | – | Cc1nc(C(=O)N[C@@H](c2ccc(C(F)(F)F)c(F)c2)C2CC2)cc(=O)[nH]1 [Example 68, N-{(R)-cyclopropyl[3-fluoro-4-(trifluoromethyl)phenyl]methyl}-2-methyl-6-oxo-1,6-dihydropyrimidine-4-carboxamide] |
| 18 nM | 23 nM | – | – | Cc1nc(C(=O)N[C@@H](c2ccc(C(F)(F)F)cc2)C2CC2)cc(=O)[nH]1 [Example 69, N-{(R)-cyclopropyl[4-(trifluoromethyl)phenyl]methyl}-2-methyl-6-oxo-1,6-dihydropyrimidine-4-carboxamide] |
| ~14 nM | 25 nM | 29 nM | 29 nM | Cc1nc(C(=O)N[C@@H](c2ccc(OC(F)(F)F)cc2)C2CC2)cc(=O)[nH]1 [Example 70, N-{(R)-cyclopropyl[4-(trifluoromethoxy)phenyl]methyl}-2-methyl-6-oxo-1,6-dihydropyrimidine-4-carboxamide] |
| – | 4.1 nM | 5.3 nM | 4.9 nM | CC(C)[C@@H](NC(=O)c1cc(=O)[nH]c(-c2ncccn2)n1)c1ccc(C(F)(F)F)cc1 [Example 73, N-{(1R)-2-methyl-1-[4-(trifluoromethyl)phenyl]propyl}-6-oxo-1,6-dihydro-2,2′-bipyrimidine-4-carboxamide] |
| – | 5 nM | 4.7 nM | 4.8 nM | CC(C)[C@@H](NC(=O)c1cc(=O)[nH]c(-c2ncccn2)n1)c1ccc(OC(F)(F)F)c(F)c1 [Example 74, N-{(1R)-1-[3-fluoro-4-(trifluoromethoxy)phenyl]-2-methylpropyl}-6-oxo-1,6-dihydro-2,2′-bipyrimidine-4-carboxamide] |
| 3 nM | 5.1 nM | – | – | CC(C)[C@@H](NC(=O)c1cc(=O)[nH]c(-c2ncccn2)n1)c1ccc(OC(F)(F)F)cc1 [Example 75, N-{(1R)-2-methyl-1-[4-(trifluoromethoxy)phenyl]propyl}-6-oxo-1,6-dihydro-2,2′-bipyrimidine-4-carboxamide] |
| – | 17 nM | 21 nM | 18 nM | O=C(NC1(c2ccc(C(F)(F)F)c(F)c2)CC1)c1cc(=O)[nH]c(-c2ncccn2)n1 [Example 76, N-{1-[3-fluoro-4-(trifluoromethyl)phenyl]cyclopropyl}-6-oxo-1,6-dihydro-2,2′-bipyrimidine-4-carboxamide] |
| – | 19 nM | 21 nM | 14 nM | O=C(NC1(c2ccc(SC(F)(F)F)cc2)CC1)c1cc(=O)[nH]c(-c2ncccn2)n1 [Example 77, 6-oxo-N-(1-{4-[(trifluoromethyl)sulfanyl]phenyl}cyclopropyl)-1,6-dihydro-2,2′-bipyrimidine-4-carboxamide] |
| – | 22 nM | 35 nM | 25 nM | CCc1ccc(C(C)NC(=O)c2cc(=O)[nH]c(-c3ncccn3)n2)cc1 (stereo not shown) [Example 79, N-[1-(4-ethylphenyl)ethyl]-6-oxo-1,6-dihydro-2,2′-bipyrimidine-4-carboxamide] |
| – | 23 nM | 25 nM | 17 nM | O=C(NC1(c2ccc(OC(F)(F)F)c(F)c2)CC1)c1cc(=O)[nH]c(-c2ncccn2)n1 [Example 81, N-{1-[3-fluoro-4-(trifluoromethoxy)phenyl]cyclopropyl}-6-oxo-1,6-dihydro-2,2′-bipyrimidine-4-carboxamide] |
| 82 nM | 153 nM | – | – | CC(C)(NC(=O)c1cc(=O)[nH]c(-c2ncccn2)n1)c1ccc(C(F)(F)F)c(F)c1 [Example 82, N-{1-[3-fluoro-4-(trifluoromethyl)phenyl]-1-methylethyl}-6-oxo-1,6-dihydro-2,2′-bipyrimidine-4-carboxamide] |
| ~5.4 nM | 21 nM | 27 nM | 26 nM | CC(NC(=O)c1cc(=O)[nH]c(-c2ncccn2)n1)c1ccc(C2CC2)cc1 (stereo not shown) [Example 83, N-[1-(4-cyclopropylphenyl)ethyl]-6-oxo-1,6-dihydro-2,2′-bipyrimidine-4-carboxamide] |
| 28 nM | 117 nM | – | – | COc1ccc2cc(C(C)NC(=O)c3cc(=O)[nH]c(-c4ncccn4)n3)ccc2c1 (stereo not shown) [Example 84, N-[1-(6-methoxynaphthalen-2-yl)ethyl]-6-oxo-1,6-dihydro-2,2′-bipyrimidine-4-carboxamide] |
| 41 nM | 60 nM | – | – | CC(NC(=O)c1cc(=O)[nH]c(-c2ncccn2)n1)c1ccc(Br)cc1 (stereo not shown) [Example 85, N-[1-(4-bromophenyl)ethyl]-6-oxo-1,6-dihydro-2,2′-bipyrimidine-4-carboxamide] |
| 199 nM | 237 nM | – | – | COc1ccc([C@@H](C)NC(=O)c2cc(=O)[nH]c(-c3ncccn3)n2)cc1 [Example 86, N-[(1R)-1-(4-methoxyphenyl)ethyl]-6-oxo-1,6-dihydro-2,2′-bipyrimidine-4-carboxamide] |
| – | 6.4 nM | 9.8 nM | 9.3 nM | CC[C@@H](NC(=O)c1cc(=O)[nH]c(-c2ncccn2)n1)c1ccc(OC(F)(F)F)c(F)c1 [Example 89, N-{(1R)-1-[3-fluoro-4-(trifluoromethoxy)phenyl]propyl}-6-oxo-1,6-dihydro-2,2′-bipyrimidine-4-carboxamide] |
| ~9.8 nM | 34 nM | 33 nM | 28 nM | O=C(N[C@@H](c1ccc(C(F)(F)F)c(F)c1)C1CC1)c1cc(=O)[nH]c(-c2ncccn2)n1 [Example 91, N-{(R)-cyclopropyl[3-fluoro-4-(trifluoromethyl)phenyl]methyl}-6-oxo-1,6-dihydro-2,2′-bipyrimidine-4-carboxamide] |
| 21 nM | 91 nM | – | – | O=C(N[C@@H](c1ccc(OC(F)(F)F)cc1)C1CC1)c1cc(=O)[nH]c(-c2ncccn2)n1 [Example 92, N-{(R)-cyclopropyl[4-(trifluoromethoxy)phenyl]methyl}-6-oxo-1,6-dihydro-2,2′-bipyrimidine-4-carboxamide] |
